This passage reports IC50 results from US20100317647A1 (priority 2009, published 2010).

By IC50 is commonly meant the concentration at which inhibition is half-maximal. Higher therefore signals lower potency.

The target of this assay is human Cat S (Homo sapiens, UniProt P25774). In words: Cathepsin enzyme inhibition assay (fluorogenic peptide substrate cleavage). In kind it is biochemical. The settings on record: human Cat S 1 nM; substrate Z-Val-Val-Arg-AMC 20 μM; pH 6.5; fluorescence over 20 minutes. The gist of the method: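 IC50 values derived from fluorescence increase (ex 360 nm, em 465 nm) monitored for 20 minutes after substrate addition. Enzyme held at 1 nM with 20 μM Z-Val-Val-Arg-AMC, in pH 6.5 potassium phosphate buffer containing DTT, EDTA and Triton X-100.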
Chain of human Cat S (P25774 115-331): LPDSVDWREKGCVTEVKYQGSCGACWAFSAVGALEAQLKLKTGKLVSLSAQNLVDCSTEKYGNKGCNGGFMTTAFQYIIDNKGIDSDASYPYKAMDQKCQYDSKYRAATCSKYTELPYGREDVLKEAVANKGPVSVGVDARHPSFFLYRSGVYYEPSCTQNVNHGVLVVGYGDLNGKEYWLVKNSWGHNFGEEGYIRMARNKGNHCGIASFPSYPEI
As for `N#CC1(NC(=O)[C@@H]2C[C@@H](S(=O)(=O)c3ccc(-n4cccn4)cc3Cl)C[C@H]2C(=O)N2CC(F)(F)C2)CC1` [Example 167, (1R,2R,4R)-4-(2-Chloro-4-pyrazol-1-yl-benzenesulfonyl)-2-(3,3-difluoro-azetidine-1-carbonyl)-cyclopentanecarboxylic acid (1-cyano-cyclopropyl)-amide], the IC50 is 1.47 nM.

Turning to `CCOC(=O)N1CCC(C#N)(NC(=O)[C@@H]2C[C@@H](S(=O)(=O)c3ccc(Cl)cc3Cl)C[C@H]2OCc2ccc(Cl)cc2)CC1` (racemic) [Example 242, 4-{[(1R,2R,4R) and (1S,2S,4S)-2-(4-Chloro-benzyloxy)-4-(2,4-dichloro-benzenesulfonyl)-cyclopentanecarbonyl]-amino}-4-cyano-piperidine-1-carboxylic acid ethyl ester], the midpoint of inhibition, the IC50, lay at 92 nM.

`Cc1cc(Cl)ccc1S(=O)(=O)[C@@H]1C[C@@H](C(=O)NC2(C#N)CCN(C)CC2)[C@H](C(=O)N2CCOCC2)C1` [Example 45, (1R,2R,4R)-4-(4-Chloro-2-methyl-benzenesulfonyl)-2-(morpholine-4-carbonyl)-cyclopentanecarboxylic acid (4-cyano-1-methyl-piperidin-4-yl)-amide formiate] returned a half-inhibitory concentration (IC50) of 0.1 nM.

`CO[C@@H]1C[C@H](S(=O)(=O)c2ccc(-c3ccc(S(C)(=O)=O)cc3)cc2C(F)(F)F)C[C@H]1C(=O)NC1(C#N)CC1` (racemic) [Example 75, (1R,2R,4R) and (1S,2S,4S)-4-(4′-Methanesulfonyl-3-trifluoromethyl-biphenyl-4-sulfonyl)-2-methoxy-cyclopentanecarboxylic acid (1-cyano-cyclopropyl)-amide] came in with an IC50 of 0.5 nM.

For `CO[C@@H]1C[C@H](S(=O)(=O)c2ccc(-c3cncc(F)c3)cc2C(F)(F)F)C[C@H]1C(=O)NC1(C#N)CC1` (racemic) [Example 84, (1R,2R,4R) and (1S,2S,4S)-4-[4-(5-Fluoro-pyridin-3-yl)-2-trifluoromethyl-benzenesulfonyl]-2-methoxy-cyclopentanecarboxylic acid (1-cyano-cyclopropyl)-amide], it took 0.7 nM to reach half-maximal inhibition (IC50).

Take `CO[C@@H]1C[C@H](S(=O)(=O)c2ccc(Cl)cc2Cl)C[C@H]1C(=O)NCC#N` (racemic) [Example 51, (1R,2R,4R) and (1S,2S,4S)-4-(2,4-Dichloro-benzenesulfonyl)-2-methoxy-cyclopentanecarboxylic acid cyanomethyl-amide]: half-maximal inhibition (IC50) was put at 20 nM.

Regarding `N#CC1(NC(=O)[C@@H]2C[C@@H](S(=O)(=O)c3ccc(-c4cncc(-c5cnc(Cl)cn5)n4)cc3C(F)(F)F)C[C@H]2C(=O)N2CC(F)(F)C2)CC1` [Example 126, (1R,2R,4R)-4-[4-(5′-Chloro-[2,2]bipyrazinyl-6-yl)-2-trifluoromethyl-benzenesulfonyl]-2-(3,3-difluoro-azetidine-1-carbonyl)-cyclopentanecarboxylic acid (1-cyano-cyclopropyl)-amide], half-maximal inhibition (IC50) was put at 0.6 nM.

`CO[C@@H]1C[C@H](S(=O)(=O)c2ccc(-c3cncc(S(C)(=O)=O)c3)cc2C(F)(F)F)C[C@H]1C(=O)NC1(C#N)CC1` (racemic) [Example 83, (1R,2R,4R) and (1S,2S,4S)-4-[4-(5-Methanesulfonyl-pyridin-3-yl)-2-trifluoromethyl-benzenesulfonyl]-2-methoxy-cyclopentanecarboxylic acid (1-cyano-cyclopropyl)-amide] displayed an IC50 of 0.2 nM.

`CO[C@@H]1C[C@H](S(=O)(=O)c2ccc(-c3cc(C)nn3C)cc2C(F)(F)F)C[C@H]1C(=O)NC1(C#N)CC1` (racemic) [Example 67, (1R,2R,4R) and (1S,2S,4S)-4-[4-(2,5-Dimethyl-2H-pyrazol-3-yl)-2-trifluoromethyl-benzenesulfonyl]-2-methoxy-cyclopentanecarboxylic acid (1-cyano-cyclopropyl)-amide] came in with an IC50 of 0.6 nM.

For `N#CC1(NC(=O)[C@@H]2C[C@@H](S(=O)(=O)c3ccc(-c4cncc(Cl)n4)cc3C(F)(F)F)C[C@H]2C(=O)N2CC(F)(F)C2)CC1` [Example 123, (1R,2R,4R)-4-[4-(6-Chloro-pyrazin-2-yl)-2-trifluoromethyl-benzenesulfonyl]-2-(3,3-difluoro-azetidine-1-carbonyl)-cyclopentanecarboxylic acid (1-cyano-cyclopropyl)-amide], it took 0.1 nM to reach half-maximal inhibition (IC50).

As to `N#CC1(NC(=O)[C@@H]2C[C@@H](S(=O)(=O)c3ccc(F)cc3Cl)C[C@H]2CO)CC1` [Example 155, (1R,2R,4S)-4-(2-Chloro-4-fluoro-benzenesulfonyl)-2-hydroxymethyl-cyclopentanecarboxylic acid (1-cyano-cyclopropyl)-amide], the concentration for half-maximal inhibition (IC50) was determined as 107 nM. This IC50 lies about 1100-fold higher than the previous one.

On to `COC[C@@H]1C[C@@H](S(=O)(=O)c2ccccc2Cl)C[C@H]1C(=O)NC1(C#N)CC1` (single isomer, unassigned) [Example 106], for which the IC50 was determined as 1010 nM.

Compound `CO[C@@H]1C[C@H](S(=O)(=O)c2ccc(-c3cc(C)sc3C)cc2C(F)(F)F)C[C@H]1C(=O)NC1(C#N)CC1` (racemic) [Example 87, (1R,2R,4R) and (1S,2S,4S)-4-[4-(2,5-Dimethyl-thiophen-3-yl)-2-trifluoromethyl-benzenesulfonyl]-2-methoxy-cyclopentanecarboxylic acid (1-cyano-cyclopropyl)-amide] displayed an IC50 of 0.2 nM.

The compound `Cn1cc(-c2ccc(S(=O)(=O)[C@H]3C[C@@H](OC4CCOCC4)[C@H](C(=O)NC4(C#N)CC4)C3)c(C(F)(F)F)c2)cn1` (racemic) [Example 173, (1R,2R,4R) and (1S,2S,4S)-4-[4-(1-Methyl-1H-pyrazol-4-yl)-2-trifluoromethyl-benzenesulfonyl]-2-(tetrahydro-pyran-4-yloxy)-cyclopentanecarboxylic acid (1-cyano-cyclopropyl)-amide] registered an IC50 of 0.217 nM.

`N#CC1(NC(=O)[C@@H]2C[C@@H](S(=O)(=O)c3ccccc3)C[C@H]2C(=O)N2[C@@H]3CC[C@H]2COC3)CC1` [Example 18, (1R,2R,4R)-4-Benzenesulfonyl-2-((1R,5S)-3-oxa-8-aza-bicyclo[3.2.1]octane-8-carbonyl)-cyclopentanecarboxylic acid (1-cyano-cyclopropyl)-amide] gave an IC50 of 2 nM.

As for `Cc1cccc(S(=O)(=O)[C@@H]2C[C@@H](C(=O)NCC#N)[C@H](C(=O)N3CCOCC3)C2)c1` [Example 5, (1R,2R,4R)-2-(Morpholine-4-carbonyl)-4-(toluene-3-sulfonyl)-cyclopentanecarboxylic acid cyanomethyl-amide], the IC50 is 0.6 nM.

As for `Cc1cc(Cl)ccc1S(=O)(=O)[C@@H]1C[C@@H](C(=O)NCC#N)[C@H](C(=O)N2CCOCC2)C1` [Example 8, (1R,2R,4R)-4-(4-Chloro-2-methyl-benzenesulfonyl)-2-(morpholine-4-carbonyl)-cyclopentanecarboxylic acid cyanomethyl-amide], the half-inhibitory concentration (IC50) came to 0.4 nM.

Compound `CCN1CCC(C#N)(NC(=O)[C@@H]2C[C@@H](S(=O)(=O)c3ccc(Cl)cc3Cl)C[C@H]2OCc2ccc(Cl)cc2)CC1` (racemic) [Example 240, (1R,2R,4R) and (1S,2S,4S)-2-(4-Chloro-benzyloxy)-4-(2,4-dichloro-benzenesulfonyl)-cyclopentanecarboxylic acid (4-cyano-1-ethyl-piperidin-4-yl)-amide] yielded an IC50 of 25.5 nM. This IC50 lies about 64-fold higher than the previous one.

Turning to `CCOC(=O)N1CCC(C#N)(NC(=O)[C@@H]2C[C@@H](S(=O)(=O)c3ccc(-c4cnn(C)c4)cc3C(F)(F)F)C[C@H]2OC)CC1` (racemic) [Example 237, 4-Cyano-4-({(1R,2R,4R) and (1S,2S,4S)-2-methoxy-4-[4-(1-methyl-1H-pyrazol-4-yl)-2-trifluoromethyl-benzenesulfonyl]-cyclopentanecarbonyl}-amino)-piperidine-1-carboxylic acid ethyl ester], the IC50 was found to be 2.2 nM.

`N#CCNC(=O)[C@@H]1C[C@@H](S(=O)(=O)c2ccc(F)c(Cl)c2)C[C@H]1C(=O)N1CCOCC1` [Example 7, (1R,2R,4R)-4-(3-Chloro-4-fluoro-benzenesulfonyl)-2-(morpholine-4-carbonyl)-cyclopentanecarboxylic acid cyanomethyl-amide]: it took 0.7 nM to reach half-maximal inhibition (IC50).

`Cc1cc(Cl)ccc1S(=O)(=O)[C@@H]1C[C@@H](C(=O)NCC#N)[C@H](C(=O)N2CCN(C)CC2)C1` [Example 33, (1R,2R,4R)-4-(4-Chloro-2-methyl-benzenesulfonyl)-2-(4-methyl-piperazine-1-carbonyl)-cyclopentanecarboxylic acid cyanomethyl-amide] registered an IC50 of 1.6 nM. Against the preceding compound, the IC50 is about 2.3-fold higher.

With `N#CC1(NC(=O)[C@@H]2C[C@@H](S(=O)(=O)c3ccc(N4CC(F)(F)C4)cc3Cl)C[C@H]2C(=O)N2CC(F)(F)C2)CC1` [Example 136, (1R,2R,4R)-4-[2-Chloro-4-(3,3-difluoro-azetidin-1-yl)-benzenesulfonyl]-2-(3,3-difluoro-azetidine-1-carbonyl)-cyclopentanecarboxylic acid (1-cyano-cyclopropyl)-amide], the IC50 worked out at 1.3 nM.

As to `CO[C@@H]1C[C@H](S(=O)(=O)c2ccc(-c3ccnn3C)cc2C(F)(F)F)C[C@H]1C(=O)NC1(C#N)CC1` (racemic) [Example 72, (1R,2R,4R) and (1S,2S,4S)-2-Methoxy-4-[4-(1-methyl-1H-pyrazol-5-yl)-2-trifluoromethyl-benzenesulfonyl]-cyclopentanecarboxylic acid (1-cyano-cyclopropyl)-amide], the concentration for half-maximal inhibition (IC50) worked out at 1.2 nM.

`N#CC1(NC(=O)[C@@H]2C[C@@H](S(=O)(=O)c3ccccn3)C[C@H]2C(=O)N2CCC(F)(F)C2)CC1` [Example 227, (1R,2R,4R)-2-(3,3-Difluoro-pyrrolidine-1-carbonyl)-4-(pyridine-2-sulfonyl)-cyclopentanecarboxylic acid (1-cyano-cyclopropyl)-amide]: the IC50 was determined as 0.555 nM.
